According to article PMC9228185, “Accurate Mass Identification of an Interfering Water Adduct and Strategies in Development and Validation of an LC-MS/MS Method for Quantification of MPI8, a Potent SARS-CoV-2 Main Protease Inhibitor, in Rat Plasma in Pharmacokinetic Studies” (Pharmaceuticals, 2022):
“Also recorded” adds a separate entry of the source. Like-named read-outs stand apart in the source and are kept apart here.

What was measured:
[1] = Crossover pharmacokinetic study in rats after IV or oral MPI8 sulfonate; format: in vivo, Sprague-Dawley rats; details: for AUC(0-t): read-out: AUC0−10 h; for Cmax: po
Description: The validated assay was applied in a crossover pharmacokinetic study to evaluate the oral bioavailability of MPI8 sulfonate in rats. The animal study protocol (#9132) was reviewed and approved by the Institutional Animal Care and Use Committee (IACUC) at Texas Southern University on 11 July 2020.
Male adult Sprague-Dawley rats were purchased from Envigo RMS (Indianapolis, IN, USA). Rats were cannulated via jugular vein a day before dosing. Three rats were intravenously administered a single dose of 5 mg/kg MPI8 sulfonate (5 mg/mL in 5% dextrose) via the jugular vein. Serial blood samples (about 0.1 mL) were collected from the cannulated jugular vein into heparin-coating tubes before dosing and at 2 min, 5 min, 15 min, 0.5 h, 1 h, 2 h, 4 h, 6 h, 8 h, 10 h, and 24 h time points after administration. After two weeks of washout period, the three rats were fasted overnight and orally administered a single dose of 50 mg/kg MPI8 sulfonate (20 mg/mL in water). Blood samples were collected before dosing and at 15 min, 0.5 h, 1 h, 1.5 h, 2 h, 2.5 h, 3 h, 4 h, 6 h, 8 h, 10 h, and 24 h time points after administration. Briefly, 12 time-point plasma samples from rats dosed intravenously and 13 time-point plasma samples from rats dosed orally were collected. Plasma samples were separated immediately by centrifugation of the blood samples at 13,000 rpm for 3 min and kept at −80 °C until analysis. The samples were processed following the procedure in Section 3.3.3. Three replicates for each time point were analyzed and the results were reported as mean values with standard deviation (SD) for each time point.
The pharmacokinetic parameters for each rat were estimated using Phoenix WinNonlin v8.3 software (Pharsight Corporation, Mountain View, CA, USA). Non-compartmental analysis was used to determine the pharmacokinetic parameters of MPI8. The pharmacokinetic parameters, including the area under the plasma concentration–time curve during the period of measurable observation (AUC0−10h), the area under the plasma concentration–time curve extrapolated to infinity (AUC0−inf), the apparent volume of distribution (Vz/F), the apparent clearance (CL/F), the total body mean residence time (MRT), and the terminal elimination half-life (T1/2) were estimated. The oral bioavailability (F) was calculated according to the following equation:(1) F=AUCoral×Dosei.v./AUCi.v.×Doseoral

[2] = parameters: method as in PMID 22915796, PMID 27027316; details: aldehyde bisulfite prodrug; cited from earlier work
[3] = Stability of MPI8 in rat plasma (QC samples, LC-MS/MS); format: in vitro ADME
Description: The quantification of MPI8 concentrations in extracted plasma samples was performed on a 6500+ Triple Quad LC-MS/MS System using a Kinetex HILIC Column (unbonded silica stationary phase, 2.6 µm, 50 × 2.1 mm, 100 Å, Phenomenex, CA, USA). The optimized method used binary gradient mobile phases with water (containing 1 mM ammonium acetate) as mobile phase A and acetonitrile as mobile phase B. A flow rate of 0.4 mL/min was used with an injection volume of 2 μL. The autosampler and oven temperature were set at 10 °C and 30 °C, respectively. The running time was 5 min. In this study, the HILIC column, widely considered as an NP column, was eluted in a typical RP time program of the gradient: Phase B was initially kept at 5% for 0.2 min, increased from 5% to 90% in the next 1.3 min, then held at 90% for 1 min, and then decreased to 5% in 1.5 min, and kept stably at 5% for 1 min. The unique behavior of MPI8 on a HILIC column, which resembles an RP characteristic, was most likely due to its hydrophobic nature.
Eighteen microliters of blank rat plasma, 2 μL of working solution (10×) (or 20 μL of rat plasma samples from pharmacokinetic studies), and 180 μL of acetonitrile (containing 5 ng/mL of IS) were vortex-mixed for 2 min and then centrifuged at 14,000 rpm for 20 min at 4 °C. Eighty μL of the supernatant were transferred to a sample vial for LC-MS/MS analysis. All samples were kept on ice during sample processing.
The stability of MPI8 was examined by keeping four replicates of the QC samples at room temperature and on ice for 4 h, in the auto-sampler tray at 10 °C for 24 h, and in a freezer at −80 °C for 3 weeks; the freeze-thaw stability was obtained over three freeze-thaw cycles, by thawing at 4 °C for 2–3 h and then refreezing at −80 °C for 12–24 h. The concentration of MPI8 after each storage period was determined using the calibration curve analyzed on the same day. The accuracy was expressed by RE%, and the precision was CV%.

[4] = format: physicochemical; details: 1 mg/mL in acetonitrile, −80 °C
[5] = test system: SARS-CoV-2 (USA-WA1/2020); parameters: method as in PMID 35229034; details: SARS-CoV-2 (USA-WA1/2020) in Vero E6 cells; read-out: EC50 to neutralize SARS-CoV-2; cited from earlier work
cathepsin L = details: selective over cathepsins B and K; cited from earlier work
[6] = Auto-sampler (10 °C 24 h), nominal 1.5 ng/mL
[7] = Auto-sampler (10 °C 24 h), nominal 25 ng/mL
[8] = Auto-sampler (10 °C 24 h), nominal 400 ng/mL
[9] = Bench top (4 h, 4 °C), nominal 1.5 ng/mL
[10] = Bench top (4 h, 4 °C), nominal 25 ng/mL
[11] = Bench top (4 h, 4 °C), nominal 400 ng/mL
[12] = Freeze and thaw (−80 °C to 4 °C, 3 cycles), nominal 1.5 ng/mL
[13] = Freeze and thaw (−80 °C to 4 °C, 3 cycles), nominal 25 ng/mL
[14] = Freeze and thaw (−80 °C to 4 °C, 3 cycles), nominal 400 ng/mL
[15] = Long-term (−80 °C, 20 days), nominal 1.5 ng/mL
[16] = Long-term (−80 °C, 20 days), nominal 400 ng/mL
[17] = male, Sprague-Dawley, in vivo, iv, rat, i.v. 5 mg/kg MPI8 sulfonate, NCA
[18] = male, Sprague-Dawley, in vivo, rat, oral 50 mg/kg MPI8 sulfonate, NCA
[19] = rat, i.v. 5 mg/kg MPI8 sulfonate, NCA

CC(OC(C)(C)C)C(NC(=O)OCc1ccccc1)C(=O)NC(CC1CCCCC1)C(=O)NC(CC1CCNC1=O)C(O)S(=O)(=O)O (stereo not drawn) [MPI8 sulfonate]
Conversion of prodrug to MPI8 in vivo ([1]; in vivo, rats): rapid conversion; also recorded: rapidly converts

CC(C)C[C@H](NC(=O)OCc1ccccc1)C(=O)N[C@@H](C[C@@H]1CCNC1=O)C(O)S(=O)(=O)[O-].[Na+] (stereo partly drawn) [GC376]
Conversion into active aldehyde form [2]: quickly convert

CC(OC(C)(C)C)C(NC(=O)OCc1ccccc1)C(=O)NC(CC1CCCCC1)C(=O)NC(C=O)CC1CCNC1=O (stereo not drawn) [MPI8]
Calculated concentration (Mean ± SD) [3, 6]: 1.44 ± 0.11 ng/mL | Stability accuracy (RE%) [3, 6]: −4.33% | Calculated concentration (Mean ± SD) [3, 7]: 26.8 ± 1.91 ng/mL | Stability accuracy (RE%) [3, 7]: 7.20% | Calculated concentration (Mean ± SD) [3, 8]: 458.5 ± 47.18 ng/mL | Stability accuracy (RE%) [3, 8]: 14.63% | Calculated concentration (Mean ± SD) [3, 9]: 1.35 ± 0.11 ng/mL | Stability accuracy (RE%) [3, 9]: −9.87% | Calculated concentration (Mean ± SD) [3, 10]: 21.3 ± 0.12 ng/mL | Stability accuracy (RE%) [3, 10]: −14.80% | Calculated concentration (Mean ± SD) [3, 11]: 340.25 ± 14.03 ng/mL | Stability accuracy (RE%) [3, 11]: −14.94% | Calculated concentration (Mean ± SD) [3, 12]: 1.33 ± 0.08 ng/mL | Stability accuracy (RE%) [3, 12]: −11.17% | Calculated concentration (Mean ± SD) [3, 13]: 23.5 ± 1.41 ng/mL | Stability accuracy (RE%) [3, 13]: −6.00% | Calculated concentration (Mean ± SD) [3, 14]: 362.2 ± 11.56 ng/mL | Stability accuracy (RE%) [3, 14]: −9.45% | Calculated concentration (Mean ± SD) [3, 15]: 1.44 ± 0.19 ng/mL | Stability accuracy (RE%) [3, 15]: −4.22% | Calculated concentration (Mean ± SD) ([3]; Long-term (−80 °C, 20 days), nominal 25 ng/mL): 25.18 ± 1.37 ng/mL | Calculated concentration (Mean ± SD) [3, 16]: 399 ± 17.61 ng/mL | Stability accuracy (RE%) [3, 16]: −0.25% | Degradation under the experimental conditions ([3]; conditions of Table 4): No significant degradation | Stability at room temperature in rat plasma ([3]; room temperature): not stable | Bench top stability accuracy (RE%) ([3]; room temperature, 50 ng/mL, n = 4): −27.6% | C0 at 2 min ([1]; male, Sprague-Dawley, in vivo, iv, rat, i.v. 5 mg/kg MPI8 sulfonate, 2 min after dosing, read-out: Mean initial plasma concentration): 4480 ng/mL | concentration at 10 h ([1]; male, Sprague-Dawley, in vivo, iv, rat, i.v. 5 mg/kg MPI8 sulfonate, 10 h post-dose, read-out: Mean plasma concentration): 1.24 ng/mL | AUC(0-inf) [1, 17]: 618 ± 15.7 ng·h/mL | MRT [1, 17]: 0.54 ± 0.1 h | half-life [1, 17]: 2.75 ± 0.53 h | AUC(0-t) [1, 17]: 613 ± 15.4 ng·h/mL | AUC(0-inf) [1, 18]: 1180 ± 288 ng·h/mL | MRT [1, 18]: 2.52 ± 0.16 h | half-life [1, 18]: 1.22 ± 0.46 h | Tmax ([1]; male, Sprague-Dawley, in vivo, rat, oral 50 mg/kg MPI8 sulfonate, NCA, no unit in table (h)): 2.17 ± 0.58 h | AUC(0-t) [1, 18]: 1180 ± 290 ng·h/mL | CL/F ([1]; male, Sprague-Dawley, in vivo, rat, oral 50 mg/kg MPI8 sulfonate, NCA, read-out: CL/F (converted)): 733 mL/min/kg | Vd/F ([1]; male, Sprague-Dawley, in vivo, rat, oral 50 mg/kg MPI8 sulfonate, NCA, read-out: Vz/F): 81.6 L/kg | bioavailability ([1]; male, Sprague-Dawley, rat, in vivo, 50 mg/kg, rat, oral 50 mg/kg vs i.v. 5 mg/kg MPI8 sulfonate, read-out: F (oral bioavailability)): 15.8% | Cmax ([1]; male, Sprague-Dawley, rat, in vivo, 50 mg/kg, oral 50 mg/kg MPI8 sulfonate): 601 ng/mL | Cmax ([1]; male, Sprague-Dawley, rat, in vivo, 50 mg/kg, oral 50 mg/kg MPI8 sulfonate, NCA, no unit in table (ng/mL)): 601 ± 75 ng/mL | CL/F [1, 19]: 110.116 ± 3.5637 mL/min/kg | Vz/F [1, 19]: 26,324.66 ± 5882.81 ml/kg | Plasma concentration ([1]; rat, i.v. 5 mg/kg MPI8 sulfonate, by 24 h): undetectable | Stock solution stable for [4]: 3 months | EC50 [5]: 30 nM | Potency toward cathepsin L (cathepsin L): potent

Cc1cc(=O)n(-c2ccccc2)n1C [AP, antipyrine, reference compound]
Stock solution stable for [4]: 12 months
